This passage reports MIC results from patent US12084445B2, “Broad-spectrum carbapenems” (VenatoRx Pharmaceuticals, Inc., priority 2018, dated 2024).

For orientation: MIC means the smallest concentration in the dilution series that meets the test's criterion for growth inhibition.

Structures are written as SMILES. Like-named read-outs stand apart in the source and are kept apart here.

Assay type in all cases: cell-based
For test [1], the system named is S. aureus ATCC 29213 (methicillin sensitive). The experiment in a line: broth microdilution MIC assay, S. aureus ATCC 29213. To be noted: Staphylococcus aureus, ATCC 29213 / MSSA; Table 3; S. aureus 29213 (MSSA); read-out: S. aureus 29213 (MSSA) MIC. The procedure:
(§1) To determine the ability of test compounds to potentiate the inhibition of the growth of bacterial strains, classic cell-based broth microdilution MIC assays were employed. MIC assays are performed according to CLSI methods except where otherwise noted (CLSI, 2011 and CLSI, 2009). The reference strains S. aureus ATCC 29213 (methicillin sensitive), S. aureus ATCC 33591 (methicillin-resistant), E. coli ATCC 25922 (wild-type/QC strain), P. aeruginosa ATCC 27853 (wild-type/QC strain), and the clinical isolate P. aeruginosa PA 8 were used to determine the ability of the exemplary carbapenem compounds to inhibit bacterial growth. An expanded panel of methicillin resistance S. aureus (MRSA) and Pseudomonas was also used to determine the ability of exemplary carbapenem compounds to inhibit bacterial growth across a broader representation of those species. To determine activity in MRSA and in addition to S. aureus ATCC 33591, S. aureus USA 300, USA 400 and USA 600, some of the most common clones found to cause human infection, were also used. To further gauge the impact on the carbapenem compounds due to various resistance mechanisms in Pseudomonas, the following strains were included: P. aeruginosa 35151 (hyper-permeable strain), P. aeruginosa AmexAB-OprM (an efflux pump knockout), and P. aeruginosa PA 3 (a clinical isolate of reduced carbapenem susceptibility). Briefly, cryo-preserved bacterial cultures of clinical strains are streaked for isolation on appropriate agar medium, in this case Mueller Hinton II agar. Following incubation to allow formation of colonies, these plates are sealed with parafilm and stored refrigerated for up to two weeks. For preparation of assay inocula and to ensure low variability, at least 5 colonies are picked from the agar plates with an inoculating loop and aseptically transferred to a culture tube containing 3 mL of Mueller-Hinton Broth (supplemented with divalent cations to required levels based on Manufacturers' specification). The broth culture is grown for 3-5 hours at 37° C. with shaking at 200 rpm. Meanwhile, 2-fold serial dilutions of test compounds are conducted in a 96 well plate with a final volume of 75 μL per well at 2-fold the final desired concentration. After the dilution plates are set up the growing cultures are then diluted in a cuvette containing MH II broth and the optical density is measured at 600 nm. Inocula are diluted such that 75 μL of this culture in Mueller-Hinton Broth results in a starting bacterial concentration of 5×10^5 CFU/mL when added to the dilution plates. The plates are incubated 16-20 hours at 37° C. The MIC is read visually as the lowest concentration well with no bacterial growth.
(§2) Representative results are shown in Tables 3, 4, and 5 where A represents an MIC>32 μg/mL, B represents an MIC between 8 and 32 μg/mL inclusive, C represents an MIC between 1 and 4 μg/mL inclusive, and D represents an MIC of <1 μg/mL. NT=Not Tested.

Test [2] concerns S. aureus ATCC 33591 (methicillin-resistant). Nature of the test: broth microdilution MIC assay, S. aureus ATCC 33591. To be noted: Staphylococcus aureus. A digest of the protocol: (§3)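 CLSI broth microdilution in cation-supplemented Mueller-Hinton broth, starting inoculum 5×10^5 CFU/mL, 2-fold compound dilutions. Incubation 16-20 h at 37 °C; MIC read visually as the lowest concentration with no growth.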

Test [3] relates to E. coli ATCC 25922 (wild-type/QC strain). The experiment in a line: broth microdilution MIC assay, E. coli ATCC 25922. Conditions: Escherichia coli, ATCC25922, E. coli 25922, read-out: E. coli 25922 MIC. In short, it runs like this:
as §3
For orientation: In broth dilution the organism is exposed to a series of concentrations in liquid medium.

In test [4] the test system is P. aeruginosa ATCC 27853 (wild-type/QC strain). Nature of the test: broth microdilution MIC assay, P. aeruginosa ATCC 27853. Conditions: Pseudomonas aeruginosa, ATCC27853, P. aeruginosa 27853, read-out: P. aeruginosa 27853 MIC. In short, it runs like this: as §3
Test [5] deals with clinical isolate P. aeruginosa PA 8. The experiment in a line: broth microdilution MIC assay, P. aeruginosa PA 8. To be noted: Pseudomonas aeruginosa, P. aeruginosa PA8. A digest of the protocol: as §3
The test system of test [6] is S. aureus USA 300. Nature of the test: broth microdilution MIC assay, S. aureus USA 300. To be noted: Staphylococcus aureus; Table 4; S. aureus USA300; read-out: S. aureus USA300 MIC. A digest of the protocol:
as §3

Test [7] deals with S. aureus USA600. Nature of the test: broth microdilution MIC assay, S. aureus USA 600. Conditions: Staphylococcus aureus; Table 4; S. aureus USA600; read-out: S. aureus USA600 MIC. In short, it runs like this:
as §3

The test system of test [8] is P. aeruginosa 35151 (hyper-permeable strain). Nature of the test: broth microdilution MIC assay, P. aeruginosa 35151. To be noted: Pseudomonas aeruginosa, read-out: P. aeruginosa 35151 MIC. In short, it runs like this:
as §3

Test [9] deals with P. aeruginosa ΔmexAB-OprM (an efflux pump knockout). The experiment in a line: broth microdilution MIC assay, P. aeruginosa ΔmexAB-OprM. To be noted: Pseudomonas aeruginosa, 20 h, read-out: P. aeruginosa ΔmexAB-OprM MIC. In short, it runs like this: as §3
The subject of test [10] is P. aeruginosa PA 3 (a clinical isolate of reduced carbapenem susceptibility). The experiment in a line: broth microdilution MIC assay, P. aeruginosa PA 3. To be noted: Pseudomonas aeruginosa; Table 5; P. aeruginosa PA3. The procedure: as §1, §2
[11] abbreviates: ATCC 33591 / MRSA, Table 3, S. aureus 33591 (MRSA), read-out: S. aureus 33591 (MRSA) MIC.
Setting [12] is: ATCC33591, Table 4, S. aureus 33591, read-out: S. aureus 33591 MIC.

As to `C[C@@H](O)[C@H]1C(=O)N2C(C(=O)O)=C(S[C@@H]3CCN(Cc4ccncc4)C3)[C@H](C)[C@H]12` [Example 9, (4R,5S,6S)-6-((R)-1-hydroxyethyl)-4-methyl-7-oxo-3-(((R)-1-(pyridin-4-ylmethyl)pyrrolidin-3-yl)thio)-1-azabicyclo[3.2.0]hept-2-ene-2-carboxylic acid], the MIC is below 1 µg/mL in test [1]; 8 to 32 µg/mL in [2] (setting [11]); below 1 µg/mL in test [3] (Table 3); 8 to 32 µg/mL in test [4] (Table 3); 8 to 32 µg/mL in [5] (Table 3).
For the compound `C[C@@H](O)[C@H]1C(=O)N2C(C(=O)O)=C(S[C@@H]3CCN(CCC4CCNCC4)C3)[C@H](C)[C@H]12` [Example 11, (4R,5S,6S)-6-((R)-1-hydroxyethyl)-4-methyl-7-oxo-3-(((R)-1-(2-(piperidin-4-yl)ethyl)pyrrolidin-3-yl)thio)-1-azabicyclo[3.2.0]hept-2-ene-2-carboxylic acid], the MIC in [1] was below 1 µg/mL; in [2] (setting [11]), 1 to 4 µg/mL; in test [3] (Table 3), below 1 µg/mL; in test [4] (Table 3), 1 to 4 µg/mL; in test [5] (Table 3), 1 to 4 µg/mL.
With `CNCc1ccc(CN2CC[C@@H](SC3=C(C(=O)O)N4C(=O)[C@H]([C@@H](C)O)[C@H]4[C@H]3C)C2)cc1` [Example 19, (4R,5S,6S)-6-((R)-1-hydroxyethyl)-4-methyl-3-(((R)-1-(4-((methylamino)methyl)benzyl)pyrrolidin-3-yl)thio)-7-oxo-1-azabicyclo[3.2.0]hept-2-ene-2-carboxylic acid], the MIC in test [1] is 1 to 4 µg/mL; in [2] (setting [11]), 8 to 32 µg/mL; in test [3] (Table 3), below 1 µg/mL; in test [4] (Table 3) it was 1 to 4 µg/mL; in test [5] (Table 3), 1 to 4 µg/mL.
Regarding `CN[C@H]1CC[C@@H](CN2CC[C@@H](SC3=C(C(=O)O)N4C(=O)[C@H]([C@@H](C)O)[C@H]4[C@H]3C)C2)CC1` [Example 22, (4R,5S,6S)-6-((R)-1-hydroxyethyl)-4-methyl-3-(((R)-1-(((1s,4S)-4-(methylamino)cyclohexyl)methyl)pyrrolidin-3-yl)thio)-7-oxo-1-azabicyclo[3.2.0]hept-2-ene-2-carboxylic acid], the MIC in [1] is 1 to 4 µg/mL; in test [2] (setting [11]) it was 8 to 32 µg/mL; in test [3] (Table 3), below 1 µg/mL; in test [4] (Table 3), 1 to 4 µg/mL; in test [5] (Table 3), 1 to 4 µg/mL.
Consider `C[C@@H](O)[C@H]1C(=O)N2C(C(=O)O)=C(S[C@@H]3CCN([C@H]4CC[C@H](N)CC4)C3)[C@H](C)[C@H]12` [Example 24, (4R,5S,6S)-3-(((R)-1-((1s,4S)-4-aminocyclohexyl)pyrrolidin-3-yl)thio)-6-((R)-1-hydroxyethyl)-4-methyl-7-oxo-1-azabicyclo[3.2.0]hept-2-ene-2-carboxylic acid], for which the MIC in [1] was 1 to 4 µg/mL; in [2] (setting [11]), 8 to 32 µg/mL; in test [3] (Table 3) it was below 1 µg/mL; in test [4] (Table 3), 1 to 4 µg/mL; in test [5] (Table 3), 8 to 32 µg/mL.
Regarding `C[C@@H](O)[C@H]1C(=O)N2C(C(=O)O)=C(S[C@@H]3CCCN(CC4CCNCC4)C3)[C@H](C)[C@H]12` [Example 43, (4R,5S,6S)-6-((R)-1-hydroxyethyl)-4-methyl-7-oxo-3-(((R)-1-(piperidin-4-ylmethyl)piperidin-3-yl)thio)-1-azabicyclo[3.2.0]hept-2-ene-2-carboxylic acid], the MIC was 8 to 32 µg/mL in test [2] (setting [12]); below 1 µg/mL in test [3] (Table 4); 8 to 32 µg/mL in [4] (Table 5); above 32 µg/mL in [5] (Table 5); 1 to 4 µg/mL in [6]; 1 to 4 µg/mL in test [7]. Further, the MIC was below 1 µg/mL in test [8], 8 to 32 µg/mL in [9] and above 32 µg/mL in test [10].
Regarding `C[C@@H](O)[C@H]1C(=O)N2C(C(=O)O)=C(S[C@@H]3CCN(C[C@@H]4CNCCO4)C3)[C@H](C)[C@H]12` [Example 49, (4R,5S,6S)-6-((R)-1-hydroxyethyl)-4-methyl-3-(((R)-1-(((S)-morpholin-2-yl)methyl)pyrrolidin-3-yl)thio)-7-oxo-1-azabicyclo[3.2.0]hept-2-ene-2-carboxylic acid], the MIC is 8 to 32 µg/mL in test [2] (setting [12]); below 1 µg/mL in test [3] (Table 4); 8 to 32 µg/mL in [4] (Table 5); 1 to 4 µg/mL in [5] (Table 5); 1 to 4 µg/mL in [6]; 1 to 4 µg/mL in test [7]. The MIC in test [8] was below 1 µg/mL; in test [9], 1 to 4 µg/mL; in [10], 8 to 32 µg/mL.
For `C[C@@H](O)[C@H]1C(=O)N2C(C(=O)O)=C(S[C@@H]3CCN(C[C@H]4CNCCO4)C3)[C@H](C)[C@H]12` [Example 50, (4R,5S,6S)-6-((R)-1-hydroxyethyl)-4-methyl-3-(((R)-1-(((R)-morpholin-2-yl)methyl)pyrrolidin-3-yl)thio)-7-oxo-1-azabicyclo[3.2.0]hept-2-ene-2-carboxylic acid], the MIC in [2] (setting [12]) was 1 to 4 µg/mL; in test [3] (Table 4) it was below 1 µg/mL; in test [4] (Table 5), 1 to 4 µg/mL; in test [5] (Table 5) it was 1 to 4 µg/mL; in test [6] it was 1 to 4 µg/mL; in [7], 1 to 4 µg/mL. The MIC in test [8] was below 1 µg/mL; in test [9], 1 to 4 µg/mL; in [10], 8 to 32 µg/mL.
For `C[C@@H](O)[C@H]1C(=O)N2C(C(=O)O)=C(S[C@@H]3CCN(C[C@H]4CCNC4)C3)[C@H](C)[C@H]12` [Example 51, (4R,5S,6S)-6-((R)-1-hydroxyethyl)-4-methyl-7-oxo-3-(((R)-1-(((S)-pyrrolidin-3-yl)methyl)pyrrolidin-3-yl)thio)-1-azabicyclo[3.2.0]hept-2-ene-2-carboxylic acid], the MIC in [2] (setting [12]) is 1 to 4 µg/mL; in [3] (Table 4), below 1 µg/mL; in [4] (Table 5), 1 to 4 µg/mL; in test [5] (Table 5), 1 to 4 µg/mL; in [6] it was 1 to 4 µg/mL; in test [7], 1 to 4 µg/mL. Also, the MIC in test [8] is below 1 µg/mL; in [9] it was 1 to 4 µg/mL; in [10] it was 8 to 32 µg/mL.
Take `C[C@@H](O)[C@H]1C(=O)N2C(C(=O)O)=C(S[C@@H]3CCN(C[C@@H]4CCNC4)C3)[C@H](C)[C@H]12` [Example 53, (4R,5S,6S)-6-((R)-1-hydroxyethyl)-4-methyl-7-oxo-3-(((R)-1-(((R)-pyrrolidin-3-yl)methyl)pyrrolidin-3-yl)thio)-1-azabicyclo[3.2.0]hept-2-ene-2-carboxylic acid]: the MIC in test [2] (setting [12]) is 1 to 4 µg/mL; in [3] (Table 4), below 1 µg/mL; in test [4] (Table 5) it was 1 to 4 µg/mL; in [5] (Table 5) it was 1 to 4 µg/mL; in test [6], 1 to 4 µg/mL; in [7] it was 1 to 4 µg/mL. Further, the MIC in [8] was below 1 µg/mL; in [9], 1 to 4 µg/mL; in test [10] it was 8 to 32 µg/mL.
